Laboratory results: patent US9206173B2, “Heterocyclic compounds for the treatment of stress-related conditions” (OTSUKA PHARMACEUTICAL CO., LTD., priority 2009, dated 2015)
Structures can show the parent of a compound that is named as a salt.

Key:
[1] = target: T1, human GPR10 (Homo sapiens (Human), UniProt P49683); test: Antagonistic activity on PrRP-induced intracellular calcium mobilization in human GPR10-expressing HEK293 cells; type: cell-based; conditions: PrRP 1 nM-induced intracellular calcium mobilization, Fluo-8
T1 sequence (P49683 whole entry): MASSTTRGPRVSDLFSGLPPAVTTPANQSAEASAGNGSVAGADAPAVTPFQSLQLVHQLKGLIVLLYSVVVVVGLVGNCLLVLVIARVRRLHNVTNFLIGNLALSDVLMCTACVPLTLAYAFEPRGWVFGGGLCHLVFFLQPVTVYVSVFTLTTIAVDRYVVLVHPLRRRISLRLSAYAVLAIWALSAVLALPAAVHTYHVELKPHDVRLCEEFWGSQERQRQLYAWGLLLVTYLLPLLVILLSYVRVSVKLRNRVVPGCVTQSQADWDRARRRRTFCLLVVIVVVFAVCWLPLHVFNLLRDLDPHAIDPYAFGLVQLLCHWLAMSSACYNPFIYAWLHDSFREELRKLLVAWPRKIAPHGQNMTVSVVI
Experimental: Pharmacological Test 2 Antagonistic Activity on GPR10 Using Human GPR10-Expressing HEK293 Cells.
Antagonistic activity of test compounds on PrRP-induced intracellular calcium mobilization was evaluated using GPR10-expressing HEK293 cells.
HEK293 cells expressing human GPR10 were maintained in Dulbecco's Modified Eagles' medium supplemented with 10% fetal bovine serum, 1% penicillin-streptomycin and 20 mM HEPES at 37° C. in a 5% CO2 incubator. GPR10-expressing HEK293 cells were placed in poly-D-lysine coated 96-well culture plates and cultured for 18-24 hr before the test at a density of 3×10^4 cells/well. […] The cells were incubated with test compounds for 15 min at room temperature, and then PrRP (the final concentration, 1 nM) was added into the medium. The changes in intracellular calcium-dependent fluorescence were monitored using a fluorescence imaging plate reader (FDSS3000, Hamamatsu Photonics K.K.). Fluo-8 fluorescence was measured with excitation at 490 nm and emission at 520 nm. The calcium-dependent fluorescence intensity was calculated by subtracting basal intensity (average intensity for 30 sec before agonist stimulation) from peak intensity for 60 sec after PrRP-stimulation, and then IC50 values were determined by nonlinear curve-fitting program, GraphPad Prism 5.

[2] = target: T1, human GPR10; test: Inhibitory activity on binding of [3H]-PrRP to GPR10 (HEK 293 cell membrane fraction); conditions: [3H]-PrRP 1 nM, human GPR10-expressing HEK 293 cell membrane fraction; Ki from IC50 by Cheng-Prussoff formula
Experimental: Inhibitory Activity on Binding of [^3H]-PrRP to GPR10
Human GPR10 receptor expressing human embryonic kidney cells, HEK 293 cells, were cultured in Dulbecco's Modified Eagle's medium supplemented with 10% fetal bovine serum and 1% penicilline-streptmycin at 37° C., in 5% carbon dioxide gas conditions. The medium was removed and the cells were recovered in a phosphate buffer to prepare a cell suspension. The cell suspension was homogenated on ice by an ultrasonic cell homogenizer (Microson™ type XL200) and centrifuged at 40,000 g for 10 minutes at 4° C. After the supernatant was discarded, Buffer A (20 mM HEPES, 10 mM EDTA, 1 μl/ml protease inhibiting cocktail, pH 7.4) was added to the pellet. The pellet was suspended by the ultrasonic cell homogenizer, then the suspension was centrifuged at 40,000 g, for 10 minutes at 4° C. After this operation was repeated once again, the supernatant was discarded, Buffer B (20 mM HEPES, 0.1 mM EDTA, pH 7.4) was added to the pellet, and the pellet was suspended by the ultrasonic homogenizer. This was stored at a freezer of −80° C. as a cell membrane fraction until use in a binding test.
To each well of a 96-well plate, 150 μl of assay buffer (20 mM HEPES, 10 mM EDTA, 1 μl/ml protease inhibiting agent cocktail, pH 7.4), 20 μl of cell membrane fraction, 10 μl of test compound and [^3H]-PrRP (final concentration 1 nM) were added and incubated at room temperature for 90 minutes. After completion of the reaction, using a cell harvester, the cell-membrane fraction sample product was filtered under aspiration by a glass fiber filter plate (Unifilter; GF/B) previously treated with 0.5% polyethylene imine. The filter was washed with a 50 mM Tris hydrochloric acid buffer (pH 7.4) three times. After the filter was dried in a dryer (50° C.) for about 3 hours, 40 μl of liquid scintillation cocktail (MicroScint-O) was added to each well and radio activity was measured by a scintillation counter (Packard Topcount). The radio activity in the presence of an excessive amount of non-labeled PrRP (final concentration: 100 nM) was regarded as non-specific binding.
The binding inhibition rate was calculated based on calculating formula: 100−(radio activity when a compound is added−radio activity of non-specific binding)÷(radio activity when a solvent is added−radio activity of non-specific binding)×100.
An IC50 value was calculated based on the concentration dependent reaction using a non-linear analysis program and a Ki value was calculated using Cheng-Prussoff formula.

Compound	Ki [2] [nM]	IC50 [1] [nM]
C#CCn1c(N[C@@H](C)c2ccc(C(F)(F)F)cc2)nc2c(c1=O)CN(C(=O)c1ccc(C#N)cc1F)CC2 [Example 1, 6-(4-cyano-2-fluorobenzoyl)-3-propargyl-2-(S)-{1-[4-(trifluoromethyl)phenyl]ethylamino}-5,6,7,8-tetrahydropyrido[4,3-d]pyrimidin-4-(3H)-one hydrochloride]	5	42
C#CCn1c(N[C@@H](C)c2ccc(C(F)(F)F)cc2)nc2c(c1=O)CN(C(=O)c1ccc(Cl)cc1)CC2 [Example 2, 6-(4-chlorobenzoyl)-3-propargyl-2-(S)-{1-[4-(trifluoromethyl)phenyl]ethylamino}-5,6,7,8-tetrahydropyrido[4,3-d]pyrimidin-4-(3H)-one hydrochloride]	29	378
C#CCn1c(N[C@@H](C)c2ccc(Cl)cc2)nc2c(c1=O)CN(C(=O)c1ccc(Cl)cc1)CC2 [Example 3, 6-(4-chlorobenzoyl)-3-propargyl-2-(S)-{1-[4-chlorophenyl]ethylamino}-5,6,7,8-tetrahydropyrido[4,3-d]pyrimidin-4-(3H)-one]	42	1720
C[C@H](Nc1nc2c(c(=O)n1N(C)C)CN(C(=O)c1ccc(C#N)cc1F)CC2)c1ccc(C(F)(F)F)cc1 [Example 5, 6-(4-cyano-2-fluorobenzoyl)-3-dimethylamino-2-(S)-{1-[4-(trifluoromethyl)phenyl]ethylamino}-5,6,7,8-tetrahydropyrido[4,3-d]pyrimidin-4-(3H)-one hydrochloride]	8	46
COn1c(N[C@@H](C)c2ccc(Cl)cc2)nc2c(c1=O)CN(C(=O)c1ccc(Cl)cc1)CC2 [Example 9, 6-(4-chlorobenzoyl)-3-methoxy-2-(S)-[1-(4-chlorophenyl)ethylamino]-5,6,7,8-tetrahydropyrido[4,3-d]pyrimidin-4-(3H)-one]	28	204
COn1c(N[C@@H](C)c2ccc(C(F)(F)F)cc2)nc2c(c1=O)CN(C(=O)c1ccc(Cl)cc1)CC2 [Example 10, 6-(4-chlorobenzoyl)-3-methoxy-2-(S)-{1-[4-(trifluoromethyl)phenyl]ethylamino}-5,6,7,8-tetrahydropyrido[4,3-d]pyrimidin-4-(3H)-one hydrochloride]	17	140
COn1c(N[C@@H](C)c2ccc(C(F)(F)F)cc2)nc2c(c1=O)CN(C(=O)c1ccc(C#N)cc1F)CC2 [Example 11, 6-(4-cyano-2-fluorobenzoyl)-3-methoxy-2-(S)-{1-[4-(trifluoromethyl)phenyl]ethylamino}-5,6,7,8-tetrahydropyrido[4,3-d]pyrimidin-4-(3H)-one hydrochloride]	15	34
COn1c(N[C@@H](C)c2ccc(C(F)(F)F)cc2)nc2c(c1=O)CN(C(=O)c1ccc(OC(F)(F)F)cc1)CC2 [Example 63]	16	686
COn1c(N2CCCC2c2ccc(C(F)(F)F)cc2)nc2c(c1=O)CN(C(=O)c1ccc(Cl)cc1)CC2 (centres unmarked) [Example 2475, 6-(4-chlorobenzoyl)-3-methoxy-2-[2-(4-trifluoromethylphenyl)pyrrolidin-1-yl]-5,6,7,8-tetrahydro-3H-pyrido[4,3-d]pyrimidin-4-one]	34	–
C#CCCn1c(N[C@@H](C)c2ccc(C(F)(F)F)cc2)nc2c(c1=O)CN(C(=O)c1ccc(C(=O)N(C)C)cc1)CC2 [Example 2494, 4-{3-(3-butynyl)-4-oxo-2-[(S)-1-(4-trifluoromethylphenyl)ethylamino]-3,5,7,8-tetrahydro-4H-pyrido[4,3-d]pyrimidine-6-carbonyl}-N,N-dimethylbenzamide]	201	–

Now from value to compound, other results behind:

Ki [2] [nM]	Compound	IC50 [1] [nM]
9	C#CCn1c(N[C@@H](C)c2ccc(C(F)(F)F)cc2)nc2c(c1=O)CN(C(=O)c1cccc(C#N)c1)CC2 [Example 2476, 3-{4-oxo-3-(2-propynyl)-2-[(S)-1-(4-trifluoromethylphenyl)ethylamino]-3,5,7,8-tetrahydro-4H-pyrido[4,3-d]pyrimidine-6-carbonyl}benzonitrile]	–
39	COn1c(NCc2ccc(C(F)(F)F)cc2)nc2c(c1=O)CN(C(=O)c1ccc(Cl)cc1)CC2 [Example 2477, 6-(4-chlorobenzoyl)-3-methoxy-2-(4-trifluoromethylbenzylamino)-5,6,7,8-tetrahydro-3H-pyrido[4,3-d]pyrimidin-4-one hydrochloride]	–
9	C#CCn1c(N[C@@H](C)c2ccc(C(F)(F)F)cc2)nc2c(c1=O)CN(C(=O)c1c(F)cccc1F)CC2 [Example 2478, 6-(2,6-difluorobenzoyl)-3-(2-propynyl)-2-[(S)-1-(4-trifluoromethylphenyl)ethylamino]-5,6,7,8-tetrahydro-3H-pyrido[4,3-d]pyrimidin-4-one]	–
42	COn1c(N[C@H](c2ccc(Cl)cc2)C(C)C)nc2c(c1=O)CN(C(=O)c1ccc3c(c1)OCCO3)CC2 [Example 2479, 2-[(S)-1-(4-chlorophenyl)-2-methylpropylamino]-6-(2,3-dihydrobenzo[1,4]dioxine-6-carbonyl)-3-methoxy-5,6,7,8-tetrahydro-3H-pyrido[4,3-d]pyrimidin-4-one]	–
31	COn1c(N[C@H](c2ccc(Cl)cc2)C(C)C)nc2c(c1=O)CN(C(=O)c1ccc(-n3ccnc3)cc1)CC2 [Example 2481, 2-[(S)-1-(4-chlorophenyl)-2-methylpropylamino]-6-(4-imidazol-1-ylbenzoyl)-3-methoxy-5,6,7,8-tetrahydro-3H-pyrido[4,3-d]pyrimidin-4-one]	–
8	CC[C@H](Nc1nc2c(c(=O)n1OC)CN(C(=O)c1ccc(C#N)cc1F)CC2)c1ccc(C(F)(F)F)cc1 [Example 2482, 3-fluoro-4-{3-methoxy-4-oxo-2-[(S)-1-(4-trifluoromethylphenyl)propylamino]-3,5,7,8-tetrahydro-4H-pyrido[4,3-d]pyrimidine-6-carbonyl}benzonitrile]	–
13	COn1c(N[C@H](c2ccc(Cl)cc2)C(C)C)nc2c(c1=O)CN(C(=O)c1cc3ccccn3n1)CC2 [Example 2483, 2-[(S)-1-(4-chlorophenyl)-2-methylpropylamino]-3-methoxy-6-(pyrazolo[1,5-a]pyridine-2-carbonyl)-5,6,7,8-tetrahydro-3H-pyrido[4,3-d]pyrimidin-4-one]	–
24	COn1c(N[C@H](c2ccc(Cl)cc2)C(C)C)nc2c(c1=O)CN(C(=O)c1ccc3c(c1)CCC(=O)N3C)CC2 [Example 2487, 2-[(S)-1-(4-chlorophenyl)-2-methylpropylamino]-3-methoxy-6-(1-methyl-2-oxo-1,2,3,4-tetrahydro-quinoline-6-carbonyl)-5,6,7,8-tetrahydro-3H-pyrido[4,3-d]pyrimidin-4-one]	–
26	COn1c(N[C@H](c2ccc(Cl)cc2)C(C)C)nc2c(c1=O)CN(C(=O)c1cc3ccccc3cn1)CC2 [Example 2489, 2-[(S)-1-(4-chlorophenyl)-2-methylpropylamino]-6-(isoquinoline-3-carbonyl)-3-methoxy-5,6,7,8-tetrahydro-3H-pyrido[4,3-d]pyrimidin-4-one]	–
237	CCOc1ccc(CNc2nc3c(c(=O)n2OC)CN(C(=O)c2ccc(C#N)cc2F)CC3)cc1 [Example 2490, 4-[2-(4-ethoxybenzylamino)-3-methoxy-4-oxo-3,5,7,8-tetrahydro-4H-pyrido[4,3-d]pyrimidine-6-carbonyl]-3-fluorobenzonitrile]	–
3	COn1c(N[C@@H](C)c2ccc(Cl)cc2)nc2c(c1=O)CN(C(=O)c1cc3cccnc3s1)CC2 [Example 2495, 2-[(S)-1-(4-chlorophenyl)ethylamino]-3-methoxy-6-(thieno[2,3-b]pyridine-2-carbonyl)-5,6,7,8-tetrahydro-3H-pyrido[4,3-d]pyrimidin-4-one hydrochloride]	–
